Results: US7993638B2, “Cancer treatment combining lymphodepleting agent with CTLs and cytokines” (Janssen Pharmaceutica NV, priority 2006, dated 2011)

Key:
[1] = system: lymphocytes; details: cited from earlier work
[2] = subcutaneous versus IV; cited from earlier work
[3] = system: lymphocytes; details: […] s.c., 5 consecutive days (total 0.7 mg/kg), hairy cell leukemia patients; cited from earlier work
[4] = 0.07 mg/kg/day x 5 days monthly for 6 months, cited from earlier work
[5] = system: class I and melanoma-associated antigen expression; assay: Study 2: IHC stains of serial biopsy samples after 5-day course of IFN-alpha; type: in vivo, human; details: 10 MU/m^2 s.c., five day course; serial biopsies of a single patient
Description: Interferon-alpha (IFN-α) has a broad spectrum of immunomodulatory and antiproliferative effects in a variety of malignancies. It is believed that one mechanism of action of IFN-α is the upregulation of tumor antigen expression on melanoma cells. It has the ability to enhance the expression of immunologically important molecules on the surface of the tumor. These include the MHC antigens, accessory molecules, as well as tumor-associated antigens.^25-27 These immunomodulatory effects may improve the activity of the immune system, including both antibodies and lymphocytes, to recognize and attack tumor cells in vivo. […] It is believed that these two modalities of immunotherapy may act synergistically. […] The same 5-day course in clinical study was included in Study 3.

[6] = administered for 4 monthly courses

Molecule | lymphopenia ([1]; MS patients) | time at which lymphocyte levels begin to recover [1, 6] | time to lymphocyte nadir [1, 6] | pharmacokinetic and therapeutic results of subcutaneous route [2] | safety [3] | haematological toxicity ([4]; cumulative 2.1 mg/kg) | patients with mild segmental herpes zoster ([4]; 27 patients in drug arm, one case on placebo) | upregulation of class I and melanoma-associated antigen expression (IHC) [5]
Nc1nc(Cl)nc2c1ncn2[C@H]1C[C@H](O)[C@@H](CO)O1 [cladribine, 2-chloro-2′deoxy-β-D-adenosine] | observed in all patients | ≤ 6 months | 5 months | entirely equivalent to the IV route | safe | no individual cases of significant thrombocytopenia, anemia granulocytopenia or generalized marrow suppression | two | 
IFN-α |  |  |  |  |  |  |  | sufficient to upregulate both class I and melanoma-associated antigen expression
